Marks after values point to notes of the source that are not given here.
What was measured:
HepG2 cells [1] = assay: In vitro mammalian chromosome aberration test on HepG2; assay type: cell-based, human
Experimental: HepG2 and VH10 cells were seeded into Petri dishes (Ø = 60 mm; HepG2 inoculum of 1 × 10^6 cells/dish and VH10 inoculum of 3.8 × 10^5 cells/dish) for 2 h. […] Three hours before the end of the cultivation, colchicine (0.75 µg/mL) was added. Before karyological processing, the cells were counted. Slides were prepared by the standard air-drying method and were stained with 2% aqueos Giemsa-Romanowski solution for 10 min.
(§1) Chromosome aberrations were evaluated by a microscopic examination. For each sample, 100 metaphases were analyzed. We focused on the following structural aberrations; breaks, chromatid, and iso-chromatid, and exchanges, including dicentrics, rings, tri-radials and quadri-radials. The results were evaluated statistically on the basis of the difference between two relative values. The percentage of aberrant metaphases and the total number of chromosome aberrations was compared to solvent control (SC), or clastogenic effect, and positive control (PC), or anticlastogenic effect. Since the genetic significance of gaps is not clearly understood, they were not included in the assessment of chromosomal damage and thus were not evaluated statistically.

VH10 cells = assay: In vitro mammalian chromosome aberration test on VH10; assay type: cell-based, human; conditions: for Number of Aberrant Metaphases / Number of Chromosome Aberrations, Chromatid b/f / Number of Chromosome Aberrations, Chromatid g / Number of Chromosome Aberrations, Exchange qr / Number of Chromosome Aberrations, Exchange tr / Number of Chromosome Aberrations, Isochromatid b/f / Total Number of CA / Number of Chromosome Aberrations, Exchange dic: 100 metaphases
Experimental: HepG2 and VH10 cells were seeded into Petri dishes (Ø = 60 mm; HepG2 inoculum of 1 × 10^6 cells/dish and VH10 inoculum of 3.8 × 10^5 cells/dish) for 2 h. Then, HF non-clastogenic concentrations (0.75 or 1.5 µM) were added and the cultures were incubated for 24 h. These concentrations of HF were chosen based on preliminary experiments (range-finding tests). Afterwards the medium was replaced with fresh medium alone or with fresh medium containing mutagens B(a)P (1.7 μM for HepG2 cells) or cisPt (0.5 μM for HepG2 cells and 0.75 μM for VH10 cells), and the HepG2 cells were cultivated further for 42 h and VH10 cells for 36 h, which approximately corresponds to 1.3 cell cycles of HepG2 and VH10 cells. Three hours before the end of the cultivation, colchicine (0.75 µg/mL) was added. Before karyological processing, the cells were counted. Slides were prepared by the standard air-drying method and were stained with 2% aqueos Giemsa-Romanowski solution for 10 min.
as §1

S. typhimurium TA100 = conditions: HF 0.075–2 µg/plate + sodium azide 50 µg/plate; without S9
Experimental: (§2) The Ames assay was conducted according to the method modified by Maron and Ames. In the Ames test, three bacterial strains of S. typhimurium (TA97, TA98, and TA100) were used. These strains are deficient in histidine and biotin, and, at the same time, they are deficient in excision repair. Prior to each experiment, the quality of each bacterial strain was checked similarly, as described by Berg et al.. The assay was carried out in sterile test tubes containing 100 µL (approximately 1.10^8 cells/mL) of overnight bacterial culture (overnight cultivated in 50 mL of LB medium) and 2.5 mL of the top-agar (with traces of histidine and biotin). In the case of metabolic activation, S9 mix was used to activate a promutagen 2-aminofluorene (50 µg/plate, Serva, Heidelberg, Germany). […] As positive controls (PC), the following diagnostic/direct mutagens were used: 9-aminoacridine (50 µg/plate, Serva, Heidelberg, Germany) for TA97; 4-nitroquinoline-1-oxide (20 µg/plate, Serva, Heidelberg, Germany) for TA98; and sodium azide (50 µg/plate, Serva, Heidelberg, Germany) for TA100. […] After 48 h of cultivation at 37 °C, his^+ revertants were counted. All experiments were conducted in triplicate. The data obtained were then analyzed using Student’s t-test.

[2] = test system: Salmonella typhimurium TA97; conditions: HF 0.075–2 µg/plate + 9-aminoacridine 50 µg/plate; without S9
Experimental: as §2

S. typhimurium TA98 = conditions: all HF concentrations (0.075–2 µg/plate) + 4-NQO 20 µg/plate; without S9
Experimental: as §2

human lymphocytes = conditions: HF 0.02–1 µM pretreatment, then zeocin 4.5 µM
Experimental: In the alkaline comet assay human lymphocytes were used. They were isolated from peripheral blood obtained by the finger prick method. To 1 mL of ice cold 1× PBS, 40 μL of peripheral blood was added and allowed to stand on ice for 30 min. Lymphocytes were separated from whole blood samples by standard centrifugation with 100 μL of the Histopaque medium (Sigma-Aldrich). After the centrifugation, 200 μL of isolated cells were resuspended in 1 mL of 1× PBS buffer and re-centrifuged.
This assay was selected for detecting the potential antigenotoxic effect of HF towards zeocin on the human lymphocytes. […] Briefly, human lymphocytes were suspended in 1% low melting point agarose (LMP) in PBS and placed on slides pre-coated with 1% normal melting point agarose (NMP). Slides with embedded lymphocytes were incubated for 1 h in HF solution (0.02; 0.05; 0.2; 1 µM). […] Afterwards, the zeocin solution was rinsed off with PBS. […] For the negative control, cells were left untreated in PBS for 1 h. […] Finally, the slides were stained with 20 µg/mL of ethidium bromide (Sigma-Aldrich, Bratislava, Slovakia), and, in each sample, 100 random nucleoids were scored at magnification 400× using a fluorescence microscope Olympus BX 51. The DNA damage was evaluated using the Comet visual computer software. DNA damage was expressed as the percentage of DNA in the tail (% tail DNA) [55]. […]

HepG2 cells [3] = conditions: read-out: IC50 (cell survival, MTT), 42 h treatment
Experimental: Thereafter, the medium was removed, and replaced by 200 µL of DMSO. The absorbance was measured at 540 and 690 nm using an xMarkTM Microplate Spectrophotometer (Bio-Rad Laboratories, Inc., Berkeley, CA, USA).

[4] = cisPt 0.5 µM (positive control), 100 metaphases
[5] = cisPt 0.75 µM (positive control)
[6] = HF 0.75 µM pretreatment 24 h + cisPt 0.5 µM, 100 metaphases
[7] = HF 0.75 µM pretreatment + B(a)P 1.7 µM, 100 metaphases
[8] = HF 1.5 µM pretreatment 24 h + cisPt 0.5 µM, 100 metaphases
[9] = HF 1.5 µM pretreatment + B(a)P 1.7 µM, 100 metaphases
[10] = HF 0.75 µM pretreatment 24 h + cisPt 0.75 µM
[11] = HF 1.5 µM pretreatment 24 h + cisPt 0.75 µM

N.N.[Cl][Pt][Cl] [cisPt, cisplatinum(II)diamine dichloride, reference compound]
Number of Aberrant Metaphases (HepG2 cells [1]; [4]): 38 ***
Number of Chromosome Aberrations, Chromatid b/f (HepG2 cells [1]; [4]): 36
Number of Chromosome Aberrations, Chromatid g (HepG2 cells [1]; [4]): 2
Number of Chromosome Aberrations, Exchange dic (HepG2 cells [1]; [4]): 2
Number of Chromosome Aberrations, Exchange qr (HepG2 cells [1]; [4]): 1
Number of Chromosome Aberrations, Isochromatid b/f (HepG2 cells [1]; [4]): 8
Total Number of CA (HepG2 cells [1]; [4]): 47 ***
Number of Aberrant Metaphases (VH10 cells; [5]): 33 ***
Number of Chromosome Aberrations, Chromatid b/f (VH10 cells; [5]): 26
Number of Chromosome Aberrations, Chromatid g (VH10 cells; [5]): 2
Number of Chromosome Aberrations, Exchange qr (VH10 cells; [5]): 4
Number of Chromosome Aberrations, Exchange tr (VH10 cells; [5]): 5
Number of Chromosome Aberrations, Isochromatid b/f (VH10 cells; [5]): 9
Total Number of CA (VH10 cells; [5]): 44 ***

Hyperforin [HF]
Number of Aberrant Metaphases (HepG2 cells [1]; [6]): 10 *^,###
Number of Chromosome Aberrations, Chromatid b/f (HepG2 cells [1]; [6]): 5
Number of Chromosome Aberrations, Chromatid g (HepG2 cells [1]; [6]): 2
Number of Chromosome Aberrations, Exchange dic (HepG2 cells [1]; [6]): 2
Number of Chromosome Aberrations, Isochromatid b/f (HepG2 cells [1]; [6]): 4
Total Number of CA (HepG2 cells [1]; [6]): 11 *^,###
Number of Aberrant Metaphases (HepG2 cells [1]; [7]): 8 ^###
Number of Chromosome Aberrations, Chromatid b/f (HepG2 cells [1]; [7]): 7
Number of Chromosome Aberrations, Chromatid g (HepG2 cells [1]; [7]): 1
Number of Chromosome Aberrations, Isochromatid b/f (HepG2 cells [1]; [7]): 1
Total Number of CA (HepG2 cells [1]; [7]): 8 ^###
Number of Aberrant Metaphases (HepG2 cells [1]; [8]): 14 **^,###
Number of Chromosome Aberrations, Chromatid b/f (HepG2 cells [1]; [8]): 10
Number of Chromosome Aberrations, Chromatid g (HepG2 cells [1]; [8]): 2
Number of Chromosome Aberrations, Exchange dic (HepG2 cells [1]; [8]): 1
Number of Chromosome Aberrations, Isochromatid b/f (HepG2 cells [1]; [8]): 3
Total Number of CA (HepG2 cells [1]; [8]): 14 **^,###
Number of Aberrant Metaphases (HepG2 cells [1]; [9]): 8 ^###
Number of Chromosome Aberrations, Chromatid b/f (HepG2 cells [1]; [9]): 8
Number of Chromosome Aberrations, Chromatid g (HepG2 cells [1]; [9]): 1
Number of Chromosome Aberrations, Exchange dic (HepG2 cells [1]; [9]): 1
Total Number of CA (HepG2 cells [1]; [9]): 9 ^###
amount of aberrant metaphases and chromosome aberrations (HepG2 cells [1]; HF 0.75 and 1.5 µM pretreatment 24 h, then cisPt 0.5 µM): significant decrease
Number of Aberrant Metaphases (VH10 cells; [10]): 12 **^,###
Number of Chromosome Aberrations, Chromatid b/f (VH10 cells; [10]): 8
Number of Chromosome Aberrations, Chromatid g (VH10 cells; [10]): 1
Number of Chromosome Aberrations, Exchange dic (VH10 cells; [10]): 1
Number of Chromosome Aberrations, Exchange qr (VH10 cells; [10]): 1
Number of Chromosome Aberrations, Exchange tr (VH10 cells; [10]): 1
Number of Chromosome Aberrations, Isochromatid b/f (VH10 cells; [10]): 3
Total Number of CA (VH10 cells; [10]): 14 ***^,###
Number of Aberrant Metaphases (VH10 cells; [11]): 11 **^,###
Number of Chromosome Aberrations, Chromatid b/f (VH10 cells; [11]): 8
Number of Chromosome Aberrations, Chromatid g (VH10 cells; [11]): 3
Number of Chromosome Aberrations, Exchange dic (VH10 cells; [11]): 1
Number of Chromosome Aberrations, Exchange tr (VH10 cells; [11]): 2
Total Number of CA (VH10 cells; [11]): 11 **^,###
amount of aberrant metaphases and chromosome aberrations (VH10 cells; HF pretreatment 24 h, then cisPt 0.75 µM): significant decrease
antimutagenic effect (S. typhimurium TA100): not observed
number of his+ revertants vs positive control [2]: decrease
number of his+ revertants vs positive control (S. typhimurium TA98): significant decrease
percentage of damaged DNA vs positive control (zeocin) (human lymphocytes): significantly decreased the percentage of damaged DNA
IC50 (HepG2 cells [3]): 19.9 µM

From article PMC6155625 (Molecules : A Journal of Synthetic Chemistry and Natural …, 2017)
